“Also recorded” adds a separate entry of the source. Like-named read-outs stand apart in the source and are kept apart here.
Key:
[1] = test system: FLJXXXXX-derived proteins; assay: SEC/MS spin column interaction analysis of FLJXXXXX-derived proteins and various compounds (Tables 30-1 to 30-4); type: binding, human
FLJ38531-derived protein = biological target: T1, FLJ38531-derived protein (Homo sapiens, UniProt Q9BVM4); assay: SEC/MS interaction analysis, FLJ38531-derived protein (hypothetical protein BC004360); type: binding; details: spin column method; doses of both compound and protein varied
T1 construct: His-tag (N); made in house; host or cells: Escherichia coli BL21star(DE3)pLysS
T1 sequence (Q9BVM4 1-153): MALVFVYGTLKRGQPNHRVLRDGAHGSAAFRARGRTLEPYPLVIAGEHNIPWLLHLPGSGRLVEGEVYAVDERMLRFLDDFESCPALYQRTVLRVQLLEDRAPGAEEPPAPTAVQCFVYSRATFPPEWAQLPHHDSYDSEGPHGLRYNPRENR
Source text: (§1) To analyze the interactions between commonly used drugs and proteins expressed from human full-length cDNA clones while keeping both the proteins and the compounds in non-modified, non-immobilized state, size exclusion chromatography (SEC) and mass analysis were used in combination. The specific procedures are shown below.
(§2) The compound-protein mixture prepared in step 1 was subjected to chromatography using an SEC column, the compound and the protein were separated by SEC, and the compound that interacted with the bound compound or protein contained in the protein fraction was analyzed using a mass analyzer.
(§3) Protein concentrations were measured using BCA Protein Assay (PIERCE), in consideration of the purity calculated by SDS-PAGE.
(§4) Mass analysis was performed using LCQ DECA XP (Thermoelectron) or Q-TOF micro (Micromass), equipped with an ESI probe. The LC pump used was Agilent 1100 (Yokogawa Analytical Systems), and the autosampler used was HTC-PAL (CTC Analytics) equipped with a cooling stacker. The SEC column used was a micro-LC column or a 384-well spin column. […]
(§5) In the 384-well spin column method, Unifilter 100 (Whatman), packed with 10 μL (dry volume) of Bio-Gel P6 (BIO-RAD) and swollen with milliQ water, was used as the SEC column. […] The SEC spin column was mounted on an acetonitrile-aliquoted 384-well U-bottom plate and centrifuged; the SEC spin column filtrate, which is a protein fraction, was recovered in 50% acetonitrile. The protein precipitate produced by the acetonitrile was removed via centrifugation and filtration for deproteinization; the resulting filtrate was concentrated by centrifugal concentration and re-dissolved in 10 μL of 50% methanol to obtain a mass analysis sample. The mobile phase supplied to the mass analyzer was 0.1% formic acid/50% methanol solution in the positive ion mode, and 0.1% ammonia/50% methanol solution in the negative ion mode; these mobile phases were used at a flow rate of 40 μL/min. 2-μL of mass analysis samples were injected using an autosampler at 2-minute intervals; the mass spectral intensity of the compound was measured to retrieve the spectral intensity of the pharmaceutical compound contained in the SEC spin column filtrate (protein fraction eluted from SEC).

FLJ10420-derived protein = biological target: T2, FLJ10420-derived protein (Homo sapiens, UniProt Q9NVZ3, T157A); assay: SEC/MS interaction analysis, FLJ10420-derived protein (hypothetical protein FLJ10420); type: binding
T2 construct: His-tag (N); made in house; host or cells: Escherichia coli BL21star(DE3)pLysS
T2 sequence (Q9NVZ3 1-263 T157A): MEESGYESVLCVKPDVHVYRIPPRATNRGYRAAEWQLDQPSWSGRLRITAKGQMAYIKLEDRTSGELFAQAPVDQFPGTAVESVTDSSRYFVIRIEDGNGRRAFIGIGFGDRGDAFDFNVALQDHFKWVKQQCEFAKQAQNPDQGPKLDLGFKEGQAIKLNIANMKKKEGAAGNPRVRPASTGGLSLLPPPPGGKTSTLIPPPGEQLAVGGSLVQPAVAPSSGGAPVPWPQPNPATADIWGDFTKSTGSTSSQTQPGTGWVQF
Source text: as §1, §2, §3, §4, §5

FLJ41991-derived protein = biological target: T3, FLJ41991-derived protein (Homo sapiens, UniProt P57764, E293G); assay: SEC/MS interaction analysis, FLJ41991-derived protein (GSDMDC1); type: binding
T3 construct: His-tag (N); made in house; host or cells: Escherichia coli BL21star(DE3)pLysS (pDEST17)
T3 sequence (P57764 265-484 E293G): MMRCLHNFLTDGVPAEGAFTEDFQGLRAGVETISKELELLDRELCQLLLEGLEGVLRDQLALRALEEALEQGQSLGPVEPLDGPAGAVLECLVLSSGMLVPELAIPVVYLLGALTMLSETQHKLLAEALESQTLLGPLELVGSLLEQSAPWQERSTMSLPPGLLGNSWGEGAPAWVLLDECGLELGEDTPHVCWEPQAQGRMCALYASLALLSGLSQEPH
Source text: as §1, §2, §3, §4, §5

[2] = SEC spin column filtrate, spectral intensity increased with doses of compound and protein
[3] = compound 12.5 μM, protein 10 μM
[4] = compound 62.5 μM, protein 10 μM
[5] = spin column method, doses of both compound and protein varied

## CCn1cc(C(=O)O)c(=O)c2ccc(C)nc21 [nalidixic acid]
[1]; [2]
  FLJ No of the derived protein with which the compound was judged to exhibit a concentration-dependent interaction: FLJ38531
FLJ38531-derived protein
  interaction judged from spectrum intensity of the compound in the SEC spin column filtrate (protein fraction eluted from SEC): concentration-dependent interaction

## CC(=O)CCCCn1c(=O)c2c(ncn2C)n(C)c1=O [pentoxifylline]
[1]; [2]
  FLJ No of the derived protein with which the compound was judged to exhibit a concentration-dependent interaction: FLJ35353

## COc1ccc(C(=O)NCc2cccnc2)cc1C(=O)NCc1cccnc1 [picotamide]
[1]; [2]
  FLJ No of the derived protein with which the compound was judged to exhibit a concentration-dependent interaction: FLJ10420
FLJ10420-derived protein; compound 12.5 μM, protein 0 μM
  spectrum intensity of the compound in the SEC spin column filtrate: 412892
FLJ10420-derived protein; compound 12.5 μM, protein 5 μM
  spectrum intensity of the compound in the SEC spin column filtrate: 323916
FLJ10420-derived protein; [3]
  spectrum intensity of the compound in the SEC spin column filtrate: 294069
FLJ10420-derived protein; compound 12.5 μM, protein 15 μM
  spectrum intensity of the compound in the SEC spin column filtrate: 237571
FLJ10420-derived protein; compound 25 μM, protein 0 μM
  spectrum intensity of the compound in the SEC spin column filtrate: 441470
FLJ10420-derived protein; compound 25 μM, protein 5 μM
  spectrum intensity of the compound in the SEC spin column filtrate: 490309
FLJ10420-derived protein; compound 25 μM, protein 10 μM
  spectrum intensity of the compound in the SEC spin column filtrate: 647010
FLJ10420-derived protein; compound 25 μM, protein 15 μM
  spectrum intensity of the compound in the SEC spin column filtrate: 496587
FLJ10420-derived protein; compound 62.5 μM, protein 0 μM
  spectrum intensity of the compound in the SEC spin column filtrate: 841101
FLJ10420-derived protein; compound 62.5 μM, protein 5 μM
  spectrum intensity of the compound in the SEC spin column filtrate: 1376939
FLJ10420-derived protein; [4]
  spectrum intensity of the compound in the SEC spin column filtrate: 1450464
FLJ10420-derived protein; compound 62.5 μM, protein 15 μM
  spectrum intensity of the compound in the SEC spin column filtrate: 1862334
FLJ10420-derived protein; [5]
  interaction judged from spectrum intensity of the compound in the SEC spin column filtrate (protein fraction eluted from SEC): concentration-dependent interaction

## CC(N/C(=N\C#N)Nc1ccncc1)C(C)(C)C (centres unmarked) [pinacidil]
[1]; [2]
  FLJ No of the derived protein with which the compound was judged to exhibit a concentration-dependent interaction: FLJ35353

## CNCCCC1c2ccccc2C=Cc2ccccc21 [protriptyline.]
[1]; [2]
  FLJ No of the derived protein with which the compound was judged to exhibit a concentration-dependent interaction: FLJ20972

## CCN(CC)CCCC(C)Nc1c2ccc(Cl)cc2nc2ccc(OC)cc12 (centres unmarked) [quinacrine]
[1]; [2]
  FLJ No of the derived protein with which the compound was judged to exhibit a concentration-dependent interaction: FLJ37909; also recorded: FLJ41991
FLJ41991-derived protein; compound 12.5 μM, protein 0 μM
  spectrum intensity of the compound in the SEC spin column filtrate: 36421
FLJ41991-derived protein; compound 12.5 μM, protein 5 μM
  spectrum intensity of the compound in the SEC spin column filtrate: 77607
FLJ41991-derived protein; [3]
  spectrum intensity of the compound in the SEC spin column filtrate: 225680
FLJ41991-derived protein; compound 12.5 μM, protein 25 μM
  spectrum intensity of the compound in the SEC spin column filtrate: 439131
FLJ41991-derived protein; compound 25 μM, protein 0 μM
  spectrum intensity of the compound in the SEC spin column filtrate: 40978
FLJ41991-derived protein; compound 25 μM, protein 5 μM
  spectrum intensity of the compound in the SEC spin column filtrate: 125609
FLJ41991-derived protein; compound 25 μM, protein 10 μM
  spectrum intensity of the compound in the SEC spin column filtrate: 481486
FLJ41991-derived protein; compound 25 μM, protein 25 μM
  spectrum intensity of the compound in the SEC spin column filtrate: 457713
FLJ41991-derived protein; compound 62.5 μM, protein 0 μM
  spectrum intensity of the compound in the SEC spin column filtrate: 123977
FLJ41991-derived protein; compound 62.5 μM, protein 5 μM
  spectrum intensity of the compound in the SEC spin column filtrate: 598920
FLJ41991-derived protein; [4]
  spectrum intensity of the compound in the SEC spin column filtrate: 1080431
FLJ41991-derived protein; compound 62.5 μM, protein 25 μM
  spectrum intensity of the compound in the SEC spin column filtrate: 1854355
FLJ41991-derived protein; [5]
  interaction judged from spectrum intensity of the compound in the SEC spin column filtrate (protein fraction eluted from SEC): concentration-dependent interaction

## COC(=O)[C@H]1[C@H]2C[C@@H]3c4[nH]c5cc(OC)ccc5c4CCN3C[C@H]2C[C@@H](OC(=O)/C=C/c2cc(OC)c(OC)c(OC)c2)[C@@H]1OC [rescinnamine]
[1]; [2]
  FLJ No of the derived protein with which the compound was judged to exhibit a concentration-dependent interaction: FLJ37909

## COC(=O)[C@H]1[C@H]2C[C@@H]3c4[nH]c5cc(OC)ccc5c4CCN3C[C@H]2C[C@@H](OC(=O)c2cc(OC)c(OC)c(OC)c2)[C@@H]1OC [reserpine]
[1]; [2]
  FLJ No of the derived protein with which the compound was judged to exhibit a concentration-dependent interaction: FLJ37909

## COc1cccc(CCc2ccccc2OCC(CN(C)C)OC(=O)CCC(=O)O)c1 (centres unmarked) [sarpogrelate]
[1]; [2]
  FLJ No of the derived protein with which the compound was judged to exhibit a concentration-dependent interaction: FLJ39553

## C[C@@H]1CC[C@@]2(NC1)O[C@H]1C[C@H]3[C@@H]4CC=C5C[C@@H](O)CC[C@]5(C)[C@H]4CC[C@]3(C)[C@H]1[C@@H]2C [solasodine]
[1]; [2]
  FLJ No of the derived protein with which the compound was judged to exhibit a concentration-dependent interaction: FLJ35353

## COc1cc(NS(=O)(=O)c2ccc(N)cc2)nc(OC)n1 [sulfadimethoxine]
[1]; [2]
  FLJ No of the derived protein with which the compound was judged to exhibit a concentration-dependent interaction: FLJ39553

## CCOC(=O)Oc1c(OC)cc(C(=O)O[C@@H]2C[C@@H]3CN4CCc5c([nH]c6cc(OC)ccc56)[C@H]4C[C@@H]3[C@H](C(=O)OC)[C@H]2OC)cc1OC [syrosingopine]
[1]; [2]
  FLJ No of the derived protein with which the compound was judged to exhibit a concentration-dependent interaction: FLJ35353

## CC/C(=C(\c1ccccc1)c1ccc(OCCN(C)C)cc1)c1ccccc1 [tamoxifen]
[1]; [2]
  FLJ No of the derived protein with which the compound was judged to exhibit a concentration-dependent interaction: FLJ37909

## c1ccc2c(c1)CCCC2C1=NCCN1 (centres unmarked) [tetrazoline]
[1]; [2]
  FLJ No of the derived protein with which the compound was judged to exhibit a concentration-dependent interaction: FLJ36526

## CSc1ccc2c(c1)N(CCC1CCCCN1C)c1ccccc1S2 (centres unmarked) [thioridazine]
[1]; [2]
  FLJ No of the derived protein with which the compound was judged to exhibit a concentration-dependent interaction: FLJ37909

## CN1CCN(CC/C=C2/c3ccccc3Sc3ccc(S(=O)(=O)N(C)C)cc32)CC1 [thiothixene (cis), thiothixene]
[1]; [2]
  FLJ No of the derived protein with which the compound was judged to exhibit a concentration-dependent interaction: FLJ37909
[1]; SEC spin column filtrate, spectral intensity increased with doses of compound and protein, listed as Thiothixene (cis)
  FLJ No of the derived protein with which the compound was judged to exhibit a concentration-dependent interaction: FLJ35353

## C[C@H]1CC[C@]2(NC1)O[C@H]1C[C@H]3[C@@H]4CC[C@H]5C[C@@H](O)CC[C@]5(C)[C@H]4CC[C@]3(C)[C@H]1[C@@H]2C [tomatidine]
[1]; [2]
  FLJ No of the derived protein with which the compound was judged to exhibit a concentration-dependent interaction: FLJ35353

## CC(C)C[C@H]1C(=O)N2CCC[C@H]2[C@]2(O)O[C@](NC(=O)[C@@H]3C=C4c5cccc6[nH]cc(c56)C[C@H]4N(C)C3)(C(C)C)C(=O)N12 [α-ergocryptine]
[1]; [2]
  FLJ No of the derived protein with which the compound was judged to exhibit a concentration-dependent interaction: FLJ35353

## celestine blue
[1]; [2]
  FLJ No of the derived protein with which the compound was judged to exhibit a concentration-dependent interaction: FLJ39553

## cyclosporin A
[1]
  FLJ No of the derived protein with which the compound was judged to exhibit a concentration-dependent interaction: FLJ23466; also recorded: FLJ11211; also recorded: FLJ37909

## eburnamonine
[1]; [2]
  FLJ No of the derived protein with which the compound was judged to exhibit a concentration-dependent interaction: FLJ11211

## spiramycin
[1]; [2]
  FLJ No of the derived protein with which the compound was judged to exhibit a concentration-dependent interaction: FLJ21841

From patent publication US20090143285A1, “TARGET PROTEIN AND TARGET GENE FOR DRUG DISCOVERY AND SCREENING METHOD” (REVERSE PROTEOMICS RESEARCH INSTITUTE CO., LTD., priority 2005, published 2009)
